According to ChEMBL document CHEMBL1201862, “PubChem BioAssay data set” (2004):
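Each compound was tested at five concentrations against cells in 96-well plates for 48 hours. Abbreviation: GI50, concentration required for 50% inhibition of growth.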 Calls of active or inactive are those of the source. Cut-off read from the data, not from the text of the source: active = GI50 up to about 1.1 µM and inactive = higher. Where a SMILES comes first, the peptide text is derived from it. Bridges are numbered along the chain shown (N, C = ends). The star is where a group is joined. Cbz = O=C(OCc1ccccc1)*

What was measured:
Assay in all cases: DTP human tumour cell line panel, 48 h
XF498 = test system: XF498
M19-MEL = test system: M19-MEL
DMS-273 = test system: DMS-273
KM-20L2 = test system: KM-20L2
Hs-578T = test system: Hs-578T
MDA-N = test system: MDA-N
SNB-78 = test system: SNB-78
DMS-114 = test system: DMS-114
RXF 631 = test system: RXF 631

Cc1ccccc1N(CC(=O)O)S(=O)(=O)c1ccccc1
GI50 (XF498): > 100 µM (inactive)
GI50 (M19-MEL): > 100 µM (inactive)
GI50 (DMS-273): > 100 µM (inactive)
GI50 (KM-20L2): > 100 µM (inactive)

Cc1cc(C)c(C2CC(O)C(CO)O2)cc1C (stereo not given)
GI50 (Hs-578T): > 100 µM (inactive)
GI50 (MDA-N): > 100 µM (inactive)

COC(=O)C12CCCN1CCC2
GI50 (MDA-N): > 100 µM (inactive)

O=[N+]([O-])/C=C/c1ccc2ccccc2c1
GI50 (Hs-578T): 4.44 µM (inactive)

c1ccc(-c2nc3ccccc3n3c(CN4CCCCC4)nnc23)cc1
GI50 (Hs-578T): 69.2 µM (inactive)
GI50 (MDA-N): > 100 µM (inactive)

CCOC(=O)/C(=C\c1cccc(C)c1)C(C)=O
GI50 (Hs-578T): 20.7 µM (inactive)
GI50 (MDA-N): 12.7 µM (inactive)

CNCCCNC(=S)Cn1cc(C)c(=O)[nH]c1=O
GI50 (Hs-578T): > 35.1 µM (inactive)
GI50 (MDA-N): > 100 µM (inactive)

CCCC(=O)NC1CCc2cc(OC)c(OC)c(OC)c2-c2ccc(OC)c(=O)cc21 (stereo not given)
GI50 (Hs-578T): 0.000237 µM (active)
GI50 (MDA-N): 0.000335 µM (active)

COc1ccc(C2SCC(=O)N2NC(=O)c2ccncc2)cc1F (stereo not given)
GI50 (XF498): > 100 µM (inactive)
GI50 (SNB-78): > 100 µM (inactive)
GI50 (DMS-114): > 100 µM (inactive)
GI50 (DMS-273): > 100 µM (inactive)
GI50 (KM-20L2): > 100 µM (inactive)

COC(=O)Cc1nn2c(nc1=O)sc1ccc3ccccc3c12
GI50 (M19-MEL): > 100 µM (inactive)
GI50 (KM-20L2): > 100 µM (inactive)
GI50 (RXF 631): 91.6 µM (inactive)

O=C(OC1C=C=CS(=O)(=O)CC#C/C=C\1)c1cnc2ccccc2n1 (stereo not given)
GI50 (Hs-578T): > 100 µM (inactive)
GI50 (MDA-N): 52 µM (inactive)

O=C1/C(=C/c2ccc(O)c(O)c2)CC/C1=C\c1ccc(O)c(O)c1
GI50 (MDA-N): 4.61 µM (inactive)

CC1=C(O)C(=O)C2C(=O)C1C(C)C2c1ccc(C)cc1 (stereo not given)
GI50 (XF498): > 100 µM (inactive)
GI50 (SNB-78): > 100 µM (inactive)
GI50 (M19-MEL): > 100 µM (inactive)
GI50 (DMS-273): > 100 µM (inactive)
GI50 (KM-20L2): 3.06 µM (inactive)

Nc1nc(-c2cccs2)cs1
GI50 (Hs-578T): 37.9 µM (inactive)
GI50 (MDA-N): 45.7 µM (inactive)

c1ccc2c(Cc3c[nH]c4ccccc34)c[nH]c2c1 [ARUNDINE]
GI50 (Hs-578T): 41.3 µM (inactive)
GI50 (MDA-N): 19.2 µM (inactive)

O=C(CC(O)(C(F)(F)F)C(F)(F)F)C(CCCl)C(O)(C(F)(F)F)C(F)(F)F (stereo not given)
GI50 (Hs-578T): 67.6 µM (inactive)
GI50 (MDA-N): > 100 µM (inactive)

Nc1nc(SCc2ccc([N+](=O)[O-])cc2)nc2c1ncn2C1OC(COP(=O)(O)O)C(O)C1O (stereo not given)
GI50 (XF498): > 100 µM (inactive)
GI50 (SNB-78): > 100 µM (inactive)
GI50 (DMS-114): > 100 µM (inactive)
GI50 (DMS-273): > 100 µM (inactive)
GI50 (KM-20L2): > 100 µM (inactive)

COC(=O)/C=C(C)/C=C\COC1CCCCO1 (stereo not given)
GI50 (Hs-578T): > 100 µM (inactive)
GI50 (MDA-N): > 100 µM (inactive)

C=C=C(C(=O)OC)[S+]([O-])c1ccccc1[N+](=O)[O-] (stereo not given)
GI50 (XF498): > 100 µM (inactive)
GI50 (SNB-78): > 100 µM (inactive)
GI50 (DMS-114): > 100 µM (inactive)
GI50 (M19-MEL): > 100 µM (inactive)
GI50 (DMS-273): > 100 µM (inactive)
GI50 (KM-20L2): > 100 µM (inactive)

O=c1[nH]c(Br)nc2c(N3CCCCC3)c[nH]c12
GI50 (XF498): > 100 µM (inactive)
GI50 (SNB-78): > 100 µM (inactive)
GI50 (DMS-114): > 100 µM (inactive)
GI50 (M19-MEL): > 100 µM (inactive)
GI50 (DMS-273): > 100 µM (inactive)
GI50 (KM-20L2): > 100 µM (inactive)

COC(=O)C1CCCCNC(=O)CCC(NC(=O)OCc2ccccc2)C(=O)N1 (stereo not drawn) (Cbz-Glu-Lys-OMe; lactam 1-2; configuration not given here)
GI50 (Hs-578T): 65.9 µM (inactive)
GI50 (MDA-N): > 100 µM (inactive)

N#Cc1c(=O)c2cc([N+](=O)[O-])ccc2n2c1[nH]c1ccccc12
GI50 (Hs-578T): 3.44 µM (inactive)
GI50 (MDA-N): 15 µM (inactive)

O=[N+]([O-])/C(C(Cl)=C(Cl)Cl)=C1\Nc2ccc([N+](=O)[O-])cc2N1
GI50 (MDA-N): 75.3 µM (inactive)

COc1ccc(OC(C)=O)c2c1CCC=CC2=O
GI50 (XF498): 17.3 µM (inactive)
GI50 (SNB-78): 38.5 µM (inactive)
GI50 (DMS-114): 19.1 µM (inactive)
GI50 (DMS-273): 16.6 µM (inactive)

O=C1N/C(=N/N=C/c2ccccc2)N/C1=C\c1c[nH]c2ccccc12
GI50 (Hs-578T): > 100 µM (inactive)
GI50 (MDA-N): > 100 µM (inactive)

CC1(C)[C@@H]2CC[C@@]1(C)CN(CCC[N+](C)(C)C)C2
GI50 (Hs-578T): > 100 µM (inactive)
GI50 (MDA-N): > 100 µM (inactive)

CCOC(=O)/C(O)=C1\C(=O)N(C)C(=O)C1c1cccc(OC)c1 (stereo not given)
GI50 (XF498): > 100 µM (inactive)
GI50 (SNB-78): > 100 µM (inactive)
GI50 (DMS-114): > 100 µM (inactive)
GI50 (M19-MEL): > 100 µM (inactive)
GI50 (DMS-273): > 100 µM (inactive)
GI50 (KM-20L2): > 100 µM (inactive)

C[P+](c1ccccc1)(c1ccc(Cl)cc1)c1ccc(Cl)cc1
GI50 (Hs-578T): 20.7 µM (inactive)

CCC(=O)C(CCN1CCC(N2C(=O)C(CCC#N)c3ccccc32)CC1)(c1ccccc1)c1ccccc1 (stereo not given)
GI50 (Hs-578T): 9.57 µM (inactive)

COc1ccc(/N=C2/C(=N/c3ccc(OC)cc3)N(c3ccccc3)C(=S)N2N=C=C2Sc3ccccc3N2C)cc1
GI50 (Hs-578T): > 100 µM (inactive)
GI50 (MDA-N): > 100 µM (inactive)
